How the values were obtained:
[1] = system: ubiquitinated proteins in T. cruzi epimastigotes; assay: Accumulation of ubiquitinated proteins in treated epimastigotes (LC-MS/MS); type: cell-based, Trypanosoma cruzi; conditions: epimastigotes pretreated 8 h at 3× EC50 (methods: 8× EC50); one biological replicate
Experimental: In cells where the function of the proteasome has been compromised, there is a concomitant build-up of ubiquitinated proteins earmarked for degradation. […] Control cultures were treated for the same period of time in the presence of dimethyl sulfoxide (DMSO). Enrichment of ubiquitinated proteins was achieved by immunoprecipitation using magnetic beads conjugated to an antibody specific for the remnant of ubiquitinated lysines following digestion with trypsin and/or LysC. We used liquid chromatography-tandem mass spectrometry (LC-MS/MS) to calculate the ubiquitination ratio of each sample by dividing the reporter intensity of ubiquitinated proteins by the reporter intensity of total protein (see Table S8). As expected, the accumulation of ubiquitinylated proteins was highest in epimastigotes treated with bortezomib (2.7-fold higher than in the DMSO-treated control), which is known to inhibit all three catalytic activities of the proteasome (Fig. 3). […] Similarly, ubiquitinated proteins accumulated to levels 1.9-fold higher in compound 1-treated parasites compared to those recovered from DMSO-treated control cells.
Controls were incubated in the presence of diluent (DMSO). Cells were harvested by centrifugation (1,912 × g, 15 min, 4°C) and washed with ice-cold PBS (1,912 × g, 5 min, 4°C); finally, the cell pellets were resuspended in 1.5 ml of ice-cold lysis buffer (1 mM EDTA, 1 mM DTT, 100 μM TLCK, and 1× Roche EDTA-free cOmplete protease inhibitor cocktail in 50 mM potassium phosphate buffer [pH 7.4]). Cell suspensions were submitted to three freeze-thaw cycles in a dry ice/ethanol bath to biologically inactivate the parasites and then lysed using a OneShot cell disruptor (Constant Systems) at 30 kpsi.
Cell lysates were centrifuged (100,000 × g, 20 min, 4°C), supernatants were collected, and the protein concentrations were determined by using a standard Bio-Rad protein assay. […]

CYP51 = system: CYP51; design: method as in PMID 25740547; conditions: cited from earlier work
T. brucei BSF = assay: T. brucei bloodstream form drug sensitivity assay; type: cell-based; conditions: Trypanosoma brucei, weighted mean, n ≥ 3, read-out: Mean compound 1 EC50 ± SD
Experimental: L. donovani promastigote ([35]), axenic amastigote ([25]), and T. brucei bloodstream form ([36]) drug sensitivity assays were carried out as previously described. HepG2 monolayers were washed twice in PBS, detached with 0.05% trypsin/EDTA, and then diluted with fully supplemented MEM growth medium. Cells were pelleted at 80 × g for 5 min and resuspended in fully supplemented growth medium. Cells were seeded into 96-well plates (5 × 10^4/well) and allowed to adhere prior to exposure to test compounds. Plates were incubated at 37°C in the presence of 5% CO2 for 72 h. After incubation, resazurin (20 μl of a 2.5-mg/ml^−1 stock solution) was added to each well, followed by incubation for a further 2 h prior to fluorescence being read as described above.

[2] = system: mitochondrial T. cruzi malic enzyme (mTcME); assay: Thermal proteome profiling, mTcME; type: binding, Trypanosoma cruzi; conditions: lysate, compound at 10× EC50
Experimental: Aliquots of each lysate were then incubated at designated temperatures (33 to 69°C) and then, for each temperature, insoluble (denatured) proteins were removed. The resulting soluble protein samples were reduced, alkylated, and digested with trypsin prior to derivatization with tandem mass tags. Pooled peptides were fractionated by high-pressure liquid chromatography and analyzed by LC/MS-MS prior to identification and quantitation. The melting points of identified proteins were then established using the TPP software package. Full melt curves were established for 6,771 proteins, representing 39.4% coverage of the T. cruzi proteome.
T. cruzi (X10/7 strain) mid-log-phase epimastigotes (∼1 × 10^10) were harvested by centrifugation (1,912 × g, 15 min, 4°C) and washed with ice-cold PBS (1,912 × g, 5 min, 4°C); finally, the cell pellet was resuspended in 8 ml of ice-cold lysis buffer (1 mM EDTA, 1 mM dithiothreitol [DTT], 100 μM TLCK [Nα-p-tosyl-L-lysine chloromethyl ketone], and 1× Roche EDTA-free COmplete protease inhibitor cocktail in 50 mM potassium phosphate buffer [pH 7.4]). […] The resulting lysate was centrifuged (100,000 × g, 20 min, 4°C), the supernatant was collected, and the protein concentration was determined using a Bio-Rad protein assay. […]

COc1ccc(NS(=O)(=O)c2cc(-c3cc(C)n[nH]3)ccc2C)cc1OC [Compound 1]
accumulation of ubiquitinated proteins versus DMSO-treated control [1]: 1.9 fold
CYP51 pIC50 (CYP51): 4.4
EC50 (T. brucei BSF): 300 ± 13 nM
impact on the thermal stability of mTcME [2]: no impact
